Where no end group is shown, it is not given here.
Columns and labels:
[1] = tested on: HSV-1; assay: microbe, parasite or virus in culture; format: cell-based, Herpes simplex virus type 1 (HSV-1 17 + strain); conditions: U251 cells
Method: (§1) Human glioma cells (U251) were maintained in Dulbecco’s Modified Eagle Medium (DMEM; Gibco, Waltham, MA, USA) supplemented with 10% heat-inactivated fetal bovine serum (FBS; ExCell), 100 U/mL penicillin, and 100 µg/mL streptomycin. Serum inactivation was performed at 56 °C for 30 min prior to medium supplementation. Cell cultures were incubated at 37 °C under 5% CO2 atmosphere. The HSV-1 17 + strain utilized in this study was maintained under laboratory preservation conditions.
U251 cells were seeded into 12-well plates at a density of 2 × 10^5 cells per well and incubated for 12 h. […] Following treatment, the total DNA was extracted by using DNA isolation mini kit (Vazyme, Nanjing, China) under the manufacturer’s instructions.
Total RNA was extracted using TRIzol reagent (Invitrogen, Carlsbad, CA, USA). One microgram of RNA was reverse-transcribed into cDNA by using a reverse transcription kit (Vazyme, China). Diluted gDNA and cDNAs were subjected to qPCR analysis using ChamQ Universal SYBR qPCR Master Mix (Vazyme, China) with the following parameters: 95 °C for 30 s, followed by 40 cycles of 95 °C for 5 s and 60 °C for 30 s, followed by melting curve analysis. Primers for qPCR were synthesized by Sangon Biotech (Shanghai, China) (Appendix A Table A2). The qPCR data were analyzed using the 2^−ΔΔCt method.

[2] = tested on: HSV-1; assay: HSV-1 footpad inoculation mouse model, viral load (UL30 gene copies) and lung H&E histology; format: in vivo; conditions: C57BL/6J mice, 10 mg/kg i.p. once daily for 5 days
Method: Female C57BL/6J mice, aged 6–8 weeks, were purchased from Beijing Vital River Laboratory Animal Technology Co., Ltd. (Beijing, China). […] Except for the vehicle control group, mice in the other groups were subplantarly infected with HSV-1 at a dose of 1.0 × 10^6 PFU per mouse. […] The vehicle control and virus control groups received an equivalent volume of phosphate-buffered saline (PBS). Mice were euthanized 24 h after the last administration, and tissue samples were collected. Body weight was measured daily at a fixed time during the treatment period to generate weight change curves.
Tissues were homogenized using a tissue grinder and total DNA was extracted from homogenate supernatants using a DNA isolation mini kit (Vazyme, China) under the manufacturer’s instructions. To establish a standard curve for real-time quantitative PCR (qPCR), the UL30 gene was used as the target sequence, and a recombinant plasmid containing this gene was constructed. In brief, the UL30 gene was cloned into the pMD19-T vector and transformed into DH5α. After verification by colony PCR and sequencing, high-purity plasmid DNA was extracted, and its concentration was measured using Nanodrop and converted into copy numbers (copies/μL). Then a 10-fold serial dilution (10^1–10^8 copies/μL) was prepared to generate the standard curve. Using the extracted DNA as a template, UL30 gene copy numbers were quantified in mouse tissues through qPCR with UL30 specific primers.
Tissues were fixed in 4% paraformaldehyde for 72 h and subsequently processed by Servicebio Biotechnology Co., Ltd. (Wuhan, China) for paraffin embedding, pathological sectioning, and hematoxylin eosin (H&E) staining.

[3] = tested on: U251 cells; assay: Cytotoxicity assay (CCK-8) on U251 cells; format: cell-based, Human; conditions: 24 h
Method: as §1
Cell viability was evaluated by using cell counting kit-8 reagent (CCK-8, Biosharp, Shanghai, China) according to the manufacturer’s protocol. Briefly, U251 cells were seeded in 96-well culture plates and cultured for 12 h at 37 °C. The cells were then treated with or without peptides for 24 h. After that, 10 μL of the CCK-8 reaction mixture were added to each well and incubated at 37 °C for 0.5–4 h. The absorbance of each well was measured at 450 nm with a SpectraMax M2e Multi-Mode Microplate Reader (Molecular Devices, USA). The formula for calculating cell viability is as follows:
Cell viability (%) = (average OD of treated sample-average OD of vehicle sample)/(average OD of cell sample-average OD of vehicle sample) × 100%

Nc1nc2c(ncn2COCCO)c(=O)[nH]1 [ACV, Acyclovir]
IC50 ([1]; Human alphaherpesvirus 1, U-251, HSV-1 MOI = 0.1, co-treatment 24 h, qPCR of UL30 DNA, mean ± SEM of three independent experiments, read-out: IC50 against HSV-1): 17.6 ± 5.75 µM
Lung tissue viral load (HSV-1 UL30 gene copies) ([2]; HSV-1 footpad 1.0 × 10^6 PFU, day 5 post-infection, n = 5, HSV-1 control 7.02 ± 0.57): 6.01 ± 0.13 log10 copies/μL
Heart tissue viral load versus HSV-1 control group ([2]; HSV-1 footpad, n = 5, HSV-1 control 7.78 ± 0.41 log10 copies/μL): neither the EM-1 nor the ACV treatment group showed a significant difference
Lung histopathology (H&E staining) ([2]; HSV-1 footpad, compared with HSV-1 control group): preserved normal alveolar architecture

GRRVKGFFRDVLRRVPYLPGPR-NH2 [EM-2, modified peptide derived from Elephas maximus cathelicidin EM]
Cytotoxic effect on U251 cells (cell viability) ([3]; U251 cells, CCK-8, 5 μM and 10 μM, compared to peptide EM, EM-3 and EM-4): significantly lower toxicity
Relative DNA levels of HSV-1 UL30 ([1]; HSV-1 MOI = 0.1, 24 h, 10 μM peptide, versus virus control group, p < 0.001): marked suppression of HSV-1 activity

RRIRGLRKFFRKSKEKLKKV-NH2 [EM-1]
CC50 (median cytotoxic concentration) [3]: 214.55 ± 36.25 µM

— publication PMC12291837, “Elephant Cathelicidin-Derived Peptides Inhibit Herpes Simplex Virus 1 Infection” (Antibiotics, 2025)
